pKd: −log10 of the molar value.
How the values were obtained:
[1] = target: T1, SMARCA4 (Homo sapiens, UniProt P51532); assay: BROMOscan Kd determination SMARCA4; format: binding
T1 construct: T7 phage strains displaying bromodomains were grown in parallel; host or cells: T7 phage grown in E. coli host derived from BL21
Protocol: (§1) Bromodomain profiling was carried out on the basis of BROMOscan™. This platform accounted for the indirect determination of the dissociation constants between 19 bromodomains and the compound of formula (13), by binding competition against a reference immobilized ligand. Compounds that bind the bromodomain prevent its binding to the immobilized ligand thus reducing the amount of protein captured. […] Hits are identified by measuring the amount of bromodomain captured in test versus control samples. Bromodomain assays for Kd determination: T7 phage strains displaying bromodomains were grown in parallel in 24-well blocks in an E. coli host derived from the BL21 strain. E. coli were grown to log-phase and infected with T7 phage from a frozen stock (multiplicity of infection=0.4) and incubated with shaking at 32° C. until lysis (90-150 minutes). The lysates were centrifuged (5,000×g) and filtered (0.2 μm) to remove cell debris. […] Kds were determined using an 11-point 3-fold compound dilution series with one DMSO control point. […] The bromodomain concentration in the eluates was measured by qPCR. […] Most Kds were determined using a compound top concentration=10,000 nM. […] Binding Constants (Kds): Binding constants (Kds) were calculated with a standard dose-response curve using the Hill equation: The Hill Slope was set to −1. […]

[2] = target: T2, TAF1(2) (Homo sapiens, UniProt P21675); assay: BROMOscan Kd determination TAF1(2); format: binding
T2 construct: FALZ, PBRM1-BD2, BPRM1-BDS, TAF1-BD2, TAF1L-BD2; host or cells: T7 phage grown in E. coli host derived from BL21
Protocol: as §1

[3] = target: T3, TRIM24(PHD, Bromo) (Homo sapiens, UniProt O15164); assay: BROMOscan Kd determination TRIM24(PHD, Bromo.); format: binding
T3 construct: T7 phage strains displaying bromodomains were grown in parallel; host or cells: T7 phage grown in E. coli host derived from BL21
Protocol: as §1

[4] = target: T4, BRD4(1, 2) (Homo sapiens, UniProt O60885); assay: BROMOscan Kd determination BRD4(1, 2); format: binding
T4 construct: T7 phage strains displaying bromodomains were grown in parallel; made in house; host or cells: T7 phage grown in an E. coli host derived from the BL21 strain
Protocol: as §1

[5] = target: T5, BRD8(1) (Homo sapiens, UniProt Q9H0E9); assay: BROMOscan Kd determination BRD8(1); format: binding
T5 construct: T7 phage strains displaying bromodomains were grown; host or cells: T7 phage in E. coli derived from BL21
Protocol: as §1

[6] = target: T1, SMARCA4; assay: Bromodomain assay % Ctrl determination SMARCA4; conditions: lower numbers indicate a stronger binding
Protocol: (§2) Compounds that bind the bromodomain prevent its binding to the immobilized ligand thus reducing the amount of protein captured. […] Hits are identified by measuring the amount of bromodomain captured in test versus control samples. Bromodomain assays for % Ctrl determination: T7 phage strains displaying bromodomains were grown in parallel in 24-well blocks in an E. coli host derived from the BL21 strain. E. coli were grown to log-phase and infected with T7 phage from a frozen stock (multiplicity of infection=0.4) and incubated with shaking at 32° C. until lysis (90-150 minutes). The lysates were centrifuged (5,000×g) and filtered (0.2 μm) to remove cell debris. […] The liganded beads were blocked with excess biotin and washed with blocking buffer (SeaBlock (Pierce), 1% BSA, 0.05% Tween 20, 1 mM DTT) to remove unbound ligand and to reduce non-specific phage binding. […] Test compounds were prepared as 1000× stocks in 100% DMSO and subsequently diluted 1:25 in monoethylene glycol (MEG). The compounds were then diluted directly into the assays such that the final concentrations of DMSO and MEG were 0.1% and 2.4%, respectively. All reactions were performed in polypropylene 384-well plates in a final volume of 0.02 ml. […] The bromodomain concentration in the eluates was measured by qPCR. […]

[7] = target: T6, BRD1 (Homo sapiens, UniProt O95696); assay: Bromodomain assay % Ctrl determination BRD1; conditions: lower numbers indicate a stronger binding
T6 construct: T7 phage strains displaying bromodomains were grown in parallel; made in house; host or cells: T7 phage grown in an E. coli host derived from the BL21 strain
Protocol: as §2

[8] = target: T7, CECR2 (Homo sapiens, UniProt Q9BXF3); assay: Bromodomain assay % Ctrl determination CECR2; conditions: lower numbers indicate a stronger binding
T7 construct: T7 phage strains displaying bromodomains were grown; host or cells: T7 phage in E. coli derived from BL21
Protocol: as §2

[9] = tested on: HL-60 cells; assay: GI50 in a culture of HL-60 cells; format: cell-based; conditions: concentration required to reduce the population of a culture of HL-60 cells by 50%
[10] = target: T8, BRD2(1) (Homo sapiens, UniProt P25440); assay: Bromodomain assay % Ctrl determination BRD2(1); conditions: lower numbers indicate a stronger binding
T8 construct: T7 phage strains displaying bromodomains were grown in parallel; made in house; host or cells: T7 phage grown in an E. coli host derived from the BL21 strain
Protocol: as §2

[11] = target: T9, BRD9 (Homo sapiens, UniProt Q9H8M2); assay: Bromodomain assay % Ctrl determination BRD9; conditions: lower numbers indicate a stronger binding
T9 construct: T7 phage strains displaying bromodomains were grown; host or cells: T7 phage in E. coli derived from BL21
T9 sequence (Q9H8M2 136-240 limits assumed): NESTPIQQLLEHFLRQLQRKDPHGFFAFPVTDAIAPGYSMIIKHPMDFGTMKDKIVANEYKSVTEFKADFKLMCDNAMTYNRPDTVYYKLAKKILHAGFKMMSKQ
Protocol: as §2

[12] = target: T10, EP300 (Homo sapiens, UniProt Q09472); assay: Bromodomain assay % Ctrl determination EP300; conditions: lower numbers indicate a stronger binding
T10 construct: T7 phage strains displaying bromodomains were grown; host or cells: T7 phage in E. coli derived from BL21
T10 sequence (Q09472 1049-1156 limits assumed): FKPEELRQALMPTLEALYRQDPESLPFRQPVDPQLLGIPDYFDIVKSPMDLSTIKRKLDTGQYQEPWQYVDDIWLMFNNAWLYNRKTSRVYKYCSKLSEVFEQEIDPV
Protocol: as §2

[13] = target: T11, GCN5L2 (Homo sapiens, UniProt Q92830); assay: Bromodomain assay % Ctrl determination GCN5L2; conditions: lower numbers indicate a stronger binding
T11 construct: T7 phage strains displaying bromodomains were grown in parallel; host or cells: T7 phage grown in E. coli host derived from BL21
Protocol: as §2

[14] = target: T12, BRPF1 (Homo sapiens, UniProt P55201); assay: Bromodomain assay % Ctrl determination BRPF1; conditions: lower numbers indicate a stronger binding
T12 construct: T7 phage strains displaying bromodomains were grown; host or cells: T7 phage in E. coli derived from BL21
T12 sequence (P55201 628-732 limits assumed): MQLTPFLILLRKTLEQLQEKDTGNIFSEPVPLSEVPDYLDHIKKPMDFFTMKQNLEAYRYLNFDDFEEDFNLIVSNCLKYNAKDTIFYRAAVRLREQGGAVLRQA
Protocol: as §2

T1 sequence (P51532 1453-1564 limits assumed): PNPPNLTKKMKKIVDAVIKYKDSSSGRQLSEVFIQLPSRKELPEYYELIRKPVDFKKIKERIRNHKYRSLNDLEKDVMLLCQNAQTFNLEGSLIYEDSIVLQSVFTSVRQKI
T7 sequence (Q9BXF3 434-538 limits assumed): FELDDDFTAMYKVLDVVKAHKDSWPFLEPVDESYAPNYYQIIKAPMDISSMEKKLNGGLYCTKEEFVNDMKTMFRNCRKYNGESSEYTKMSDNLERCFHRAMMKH
T11 sequence (Q92830 728-832 limits assumed): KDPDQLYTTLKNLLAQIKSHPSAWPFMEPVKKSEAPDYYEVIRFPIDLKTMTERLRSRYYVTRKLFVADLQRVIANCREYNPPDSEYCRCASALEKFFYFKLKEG
T3 sequence (O15164 824-1006 limits assumed): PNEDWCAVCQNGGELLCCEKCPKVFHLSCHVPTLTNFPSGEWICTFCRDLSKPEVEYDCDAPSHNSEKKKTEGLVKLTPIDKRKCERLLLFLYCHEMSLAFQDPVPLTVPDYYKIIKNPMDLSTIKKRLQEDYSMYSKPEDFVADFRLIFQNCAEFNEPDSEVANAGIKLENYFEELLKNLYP
T5 sequence (Q9H0E9 706-811 limits assumed): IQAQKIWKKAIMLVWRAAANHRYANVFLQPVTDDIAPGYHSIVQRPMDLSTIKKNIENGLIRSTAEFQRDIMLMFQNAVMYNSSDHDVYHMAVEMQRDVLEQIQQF
T6 sequence (O95696 562-666 limits assumed): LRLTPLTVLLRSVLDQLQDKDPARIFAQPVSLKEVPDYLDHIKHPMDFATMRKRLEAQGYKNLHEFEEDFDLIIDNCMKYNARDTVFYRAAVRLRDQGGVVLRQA
T2 sequence (P21675 1519-1628 limits assumed): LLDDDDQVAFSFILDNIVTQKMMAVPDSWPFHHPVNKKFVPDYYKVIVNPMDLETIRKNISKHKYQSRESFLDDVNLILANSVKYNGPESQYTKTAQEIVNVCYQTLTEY
T8 sequence (P25440 74-180 limits assumed): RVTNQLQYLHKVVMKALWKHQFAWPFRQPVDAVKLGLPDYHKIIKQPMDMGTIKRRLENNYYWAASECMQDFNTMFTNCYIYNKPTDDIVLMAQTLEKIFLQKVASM

Row | pKd [1] | pKd [2] | pKd [3] | pKd [4] | pKd [5] | % Ctrl @ 10 000 nM SMARCA4 [6] [% Ctrl] | % Ctrl @ 10 000 nM BRD1 [7] [% Ctrl] | % Ctrl @ 10 000 nM CECR2 [8] [% Ctrl] | GI50HL60 [9] [µM] | % Ctrl @ 10 000 nM BRD2(1) [10] [% Ctrl] | % Ctrl @ 10 000 nM BRD9 [11] [% Ctrl] | % Ctrl @ 10 000 nM EP300 [12] [% Ctrl] | % Ctrl @ 10 000 nM GCN5L2 [13] [% Ctrl] | % Ctrl @ 10 000 nM BRPF1 [14] [% Ctrl] | Structure (SMILES)
1 | < 5.00 | 5.39 | 5.28 | 6.80 | 5.59 |  |  |  |  |  |  |  |  |  | Cc1[nH]c(-c2cc(N)ccc2Cl)c2c1C(=O)CCCC2 [Compound 23]
2 |  |  |  |  |  | 71 | 26 | 1.3 | 0.17 | 0 | 0 | 1.4 | 44 | 0.15 | COc1ccc(S(=O)(=O)N2CCOCC2)cc1NC(=O)c1[nH]c(C)c2c1CCCCC2=O [Compound 13, N-(2-methoxy-5-(morpholinosulfonyl)phenyl)-3-methyl-4-oxo-2,4,5,6,7,8-hexahydrocyclohepta[c]pyrrole-1-carboxamide]
